Holding throughout (experiment): Postemergence herbicidal activity, greenhouse trial (visual injury 0-100%)
What all share (format): in vivo

The subject of assay [1] is wild buckwheat (Polygonum convolvulus, POLCO). The protocol:
(§1) Seeds of the desired test plant species were planted in Sun Gro MetroMix® 306 planting mixture, which typically has a pH of 6.0 to 6.8 and an organic matter content of about 30 percent, in plastic pots with a surface area of 103.2 square centimeters (cm^2). […] The plants were grown for 7-36 days (d) in a greenhouse with an approximate 14-hour (h) photoperiod which was maintained at about 23° C. during the day and 22° C. during the night. Nutrients and water were added on a regular basis and supplemental lighting was provided with overhead metal halide 1000-Watt lamps as necessary. The plants were employed for testing when they reached the second or third true leaf stage.
(§2) Weighed amounts of technical or formulated material (emulsifiable concentrate (EC) or soluble concentrate (SL)) were dissolved in a volume of 97:3 volume per volume (v/v) acetone/dimethyl sulfoxide (DMSO) to stock solutions. […] The concentrated stock solutions were diluted with an aqueous mixture of 1.5% v/v of Agri-dex crop oil concentrate to provide the appropriate application rates. Compound requirements are based upon a 12 milliliter (mL) application volume at a rate of 187 liters per hectare (L/ha). Spray solutions of the experimental compound mixtures were prepared by adding the stock solutions to the appropriate amount of dilution solution to form a 12 mL spray solution in two-way combinations. Formulated compounds were applied to the plant material with an overhead Mandel track sprayer equipped with 8002E nozzles calibrated to deliver 187 L/ha over an application area of 0.503 square meters (m^2) at a spray height of 18 inches (43 centimeters (cm)) above average plant canopy. Control plants were sprayed in the same manner with the solvent blank. Application rates for component (a) are in g ae/ha, and application rates for component (b) are in g ai/ha.
(§3) The treated plants and control plants were placed in a greenhouse as described above and watered by sub-irrigation to prevent wash-off of the test compounds. After 20-22 d, the condition of the test plants as compared with that of the control plants was determined visually and scored on a scale of 0 to 100 percent where 0 corresponds to no injury and 100 corresponds to complete kill. Colby's equation was used to determine the herbicidal effects expected from the mixtures. […]
(§4) Weighed amounts of technical material were dissolved in a volume of 97:3 volume per volume (v/v) acetone/dimethyl sulfoxide (DMSO) to stock solutions. […] The concentrated stock solutions were diluted with an aqueous mixture of 1.5% v/v of Agri-dex crop oil concentrate to provide the appropriate application rates. Compound requirements are based upon a 12 milliliter (mL) application volume at a rate of 187 liters per hectare (L/ha).

The test system of assay [2] is nutsedge (Cyperus esculentus, CYPES). To be noted: Cyperus, post-emergence, read-out: % visual injury Obs. The protocol:
as §1
as §2, with “technical” for “technical or formulated”, “material” for “material (emulsifiable concentrate (EC) or soluble concentrate (SL))”
as §3, §2

The test system of assay [3] is kochia (Kochia scoparia, KCHSC). The protocol: as §1, §2, §3, §4
Assay [4] relates to thistle (Cirsium arvense, CIRAR). The procedure:
as §1, §2, §3, §4

Assay [5] relates to chickweed (Stellaria media, STEME). The protocol: as §1, §2
(§5) The treated plants and control plants were placed in a greenhouse as described above and watered by sub-irrigation to prevent wash-off of the test compounds. After 20-22 d, the condition of the test plants as compared with that of the control plants was determined visually and scored on a scale of 0 to 100 percent where 0 corresponds to no injury and 100 corresponds to complete kill. The condition of the test plants was compared with that of the control plants as determined visually and scored on a scale of 0 to 100 percent, where 0 corresponds to no injury and 100 corresponds to complete kill. Colby's equation was used to determine the herbicidal effects expected from the mixtures.
(§6) Compound 1 was formulated as an EC and was combined with florasulam, cloransulam, diclosulam, flumetsulam, penoxsulam, or pyroxsulam. Compound 2 was formulated as an EC and was combined with florasulam or pyroxsulam. The mixtures were applied to winter wheat (TRZAW), common rice (ORYSA), maize (ZEAMX), and the phytotoxicity of the herbicidal compositions was measured. In addition, the efficacy of the herbicidal compositions on blackgrass (Alopecurus myosuroides, ALOMY), pigweed (Amaranthus retrollexus, AMARE), wild oat (Avena fatua, AVEFA), common lambsquarters (Chenopodium album L., CHEAL), thistle (Cirsium arvense CIRAR), nutsedge (Cyperus esculentus, CYPES), barnyardgrass (Echinochloa crus-galli, ECHCG), poinsettia (Euphorbia heterophylla, EPHHL), ivyleaf morning-glory (Ipomoea hederacea, IPOHE), kochia (Kochia scoparia, KCHSC), wild buckwheat (Polygonum convolvulus, POLCO), grain sorghum (Sorghum vulgare, SORVU), chickweed (Stellaria media, STEME), wild pansy (Viola tricolor, VIOTR), was evaluated.
(§7) Weighed amounts of technical material were dissolved in a volume of 97:3 volume per volume (v/v) acetone/dimethyl sulfoxide (DMSO) to stock solutions. […] The concentrated stock solutions were diluted with an aqueous mixture of 1.5% v/v of Agri-dex crop oil concentrate to provide the appropriate application rates. Compound requirements are based upon a 12 milliliter (mL) application volume at a rate of 187 liters per hectare (L/ha). […]

Assay [6] deals with barnyardgrass (Echinochloa crus-galli, ECHCG). The conditions noted are these: Echinochloa crus-galli, post-emergence, ECHCG; thifensulfuron 15 g ai/ha; read-out: % visual injury Obs. The procedure: as §1, §2, §5, §6, §7
Assay [7] has as its system ivyleaf morning-glory (Ipomoea hederacea, IPOHE). The conditions noted are these: IPOHE. The procedure:
as §1, §2, §5, §6, §7

Assay [8] deals with poinsettia (Euphorbia heterophylla, EPHHL). To be noted: Euphorbia heterophylla, post-emergence; 4.375 g ai/ha; read-out: % visual injury Obs. The procedure:
as §1
as §2, with “technical” for “technical or formulated”, “material” for “material (emulsifiable concentrate (EC) or soluble concentrate (SL))”
as §3, §2

The subject of assay [9] is pigweed (Amaranthus retroflexus, AMARE). The procedure: as §1, §2, §3, §4
For assay [10], the system named is common lambsquarters (Chenopodium album L., CHEAL). The conditions noted are these: Chenopodium album, post-emergence, 4.375 g ai/ha; read-out: % visual injury Obs. The protocol:
as §1, §2, §5, §6, §7

The test system of assay [11] is wild pansy (Viola tricolor, VIOTR). The conditions noted are these: Viola tricolor, post-emergence, VIOTR, read-out: % visual injury Obs. The procedure: as §1, §2, §5
as §6, with “Compound 1 was formulated as an EC and was combined with florasulam, cloransulam, diclosulam, flumetsulam, penoxsulam, or pyroxsulam.” left out
as §4

On to `COC(=O)c1ccc(I)cc1S(=O)(=O)[N-]C(=O)Nc1nc(C)nc(OC)n1.[Na+]`, for which the pest or weed control at 2.5 g/ha in assay [1] (Fallopia convolvulus, post-emergence, POLCO, iodosulfuron 2.5 g ai/ha, read-out: % visual injury Obs) worked out at 80%.
For the compound `COC(=O)c1csc(C)c1S(=O)(=O)NC(=O)n1nc(OC)n(C)c1=O`, the pest or weed control at 5 g/ha came to 70% in [2] (5 g ai/ha); 10% in assay [3] (Bassia scoparia, post-emergence, 5 g ai/ha, read-out: % visual injury Obs); 50% in [4] (Cirsium arvense, post-emergence, 5 g ai/ha, read-out: % visual injury Obs); 95% in [5] (Stellaria media, post-emergence, 5 g ai/ha, read-out: % visual injury Obs).
`COC(=O)c1sccc1S(=O)(=O)NC(=O)Nc1nc(C)nc(OC)n1`: the pest or weed control at 15 g/ha in assay [2] (CYPES, thifensulfuron 15 g ai/ha) is 0%; in [4] (Cirsium arvense, post-emergence, CIRAR, thifensulfuron 15 g ai/ha, read-out: % visual injury Obs), 10%; in assay [6], 10%; in [7] (Ipomoea hederacea, post-emergence, thifensulfuron 15 g ai/ha, read-out: % visual injury Obs) it was 85%.
For `COC(=O)c1ccccc1S(=O)(=O)NC(=O)N(C)c1nc(C)nc(OC)n1`, the pest or weed control at […] in assay [2] (CYPES, tribenuron 7.5 g ai/ha) was 0%; in assay [3] (Bassia scoparia, post-emergence, KCHSC, tribenuron 7.5 g ai/ha, read-out: % visual injury Obs), 70%; in assay [1] (Fallopia convolvulus, post-emergence, POLCO, tribenuron 7.5 g ai/ha, read-out: % visual injury Obs) it was 90%; in assay [7] (Ipomoea hederacea, post-emergence, tribenuron 7.5 g ai/ha, read-out: % visual injury Obs), 65%.
As to `CCOc1nc(F)cc2nc(S(=O)(=O)Nc3c(Cl)cccc3C(=O)OC)nn12` [Cloransulam, cloransulam], the pest or weed control in assay [2] (4.375 g ai/ha) is 50%; in assay [8], 30%; in [3] (Bassia scoparia, post-emergence, 4.375 g ai/ha, read-out: % visual injury Obs), 0%; in [9] (Amaranthus retroflexus, post-emergence, 4.375 g ai/ha, read-out: % visual injury Obs), 0%; in assay [4] (Cirsium arvense, post-emergence, 4.375 g ai/ha, read-out: % visual injury Obs), 99%; in assay [1] (Fallopia convolvulus, post-emergence, 4.375 g ai/ha, read-out: % visual injury Obs), 85%. Moreover, the pest or weed control worked out at 0% in [5] (Stellaria media, post-emergence, 4.375 g ai/ha, read-out: % visual injury Obs) and 0% in assay [10].
With `CCOc1ccccc1OS(=O)(=O)NC(=O)Nc1nc(OC)cc(OC)n1` [Ethoxysulfuron, ethoxysulfuron], the pest or weed control at 10 g/ha in assay [3] (Bassia scoparia, post-emergence, KCHSC, ethoxysulfuron 10 g ai/ha, read-out: % visual injury Obs) was 0%; in assay [9] (Amaranthus retroflexus, post-emergence, AMARE, ethoxysulfuron 10 g ai/ha, read-out: % visual injury Obs), 20%; in assay [5] (Stellaria media, post-emergence, STEME, ethoxysulfuron 10 g ai/ha, read-out: % visual injury Obs) it was 10%; in [11] (ethoxysulfuron 10 g ai/ha) it was 40%.
For the compound `CCS(=O)(=O)c1nc2ccccn2c1S(=O)(=O)NC(=O)Nc1nc(OC)cc(OC)n1` [Sulfosulfuron, sulfosulfuron], the pest or weed control at 8.75 g/ha in [2] (CYPES, sulfosulfuron 8.75 g ai/ha) is 80%; in [4] (Cirsium arvense, post-emergence, CIRAR, sulfosulfuron 8.75 g ai/ha, read-out: % visual injury Obs) it was 85%; in assay [1] (Fallopia convolvulus, post-emergence, POLCO, sulfosulfuron 8.75 g ai/ha, read-out: % visual injury Obs), 80%; in assay [11] (sulfosulfuron 8.75 g ai/ha), 80%.
Take halosulfuron: the “% visual injury Obs” value in [3] (KCHSC, halosulfuron 17.5 g ai/ha) was 0%; in assay [9] (AMARE, halosulfuron 17.5 g ai/ha), 30%; in assay [4] (CIRAR, halosulfuron 8.75 g ai/ha), 10%; in [1] (POLCO, halosulfuron 8.75 g ai/ha) it was 30%; in [5] (STEME, halosulfuron 17.5 g ai/ha), 50%; in assay [7] (halosulfuron 17.5 g ai/ha), 20%.

The record behind these values is patent US20190364896A1, “SYNERGISTIC WEED CONTROL FROM APPLICATIONS OF PYRIDINE CARBOXYLIC ACID HERBICIDES AND ALS INHIBITORS” (Dow AgroSciences LLC, priority 2014, published 2019).
